Results published in patent US20240122857A1, “PHARMACEUTICAL FORMULATIONS OF INDOLEAMINE 2, 3-DIOXYGENASE INHIBITORS” (BRISTOL-MYERS SQUIBB COMPANY, priority 2019, published 2024).
Structures can show the parent of a compound that is named as a salt.

Assay: Excipient compatibility study
Assay type: physicochemical

- chemical stability with commonly used pharmaceutical excipients: acceptable chemical stability
Structure (SMILES): C[C@@H](C(=O)Nc1ccc(Cl)cc1)[C@H]1CC[C@@H](c2ccnc3ccc(F)cc32)CC1 [Compound I-MSA, (R)—N-(4-chlorophenyl)-2-((1S, 4S)-4-(6-fluoroquinolin-4-yl)cyclohexyl) propanamide methane sulfonic acid salt]
